Laboratory results reported in publication PMC13477270 (Nature structural & molecular biology, 2025).

Tests used:
[1] = system: iTRIM37 KO RPE1 cells (PLK4 inhibition); format: cell-based; details: centrinone 100 or 150 nM, before TRIM37 knockout with doxycycline
iTRIM37 KO RPE1 cells = format: cell-based; details: centrinone pretreatment, then TRIM37 knockout with doxycycline

SMILES: COc1c(Nc2cc(C)[nH]n2)nc(Sc2ccc(S(=O)(=O)Cc3cccc([N+](=O)[O-])c3F)cc2F)nc1N1CCOCC1 [centrinone]
- centrosome depletion [1]: depleted centrosomes
- frequency of centrobin condensate formation after centrosome loss (iTRIM37 KO RPE1 cells): at a frequency similar to that in constitutive TRIM37Δ cells with centrosomes
